pIC50: −log10 of the molar value.

The target of one assay is Human LDHA (Homo sapiens (Human), UniProt P00338). As to the kind of experiment: human LDHA primary biochemical assay (resazurin/diaphorase coupled, fluorescence). Particulars: LDHA inhibitory activity, activity level based on IC50 (Table 7). The source says: Test compounds were placed in a Greiner Bio-One (Monroe, N.C.) 1536-well black solid bottom assay plate. 200 millimolar (mM) Tris HCl, pH 7.4, 100 micromolar […] EDTA and 0.01% TWEEN-20™, final concentration, was used as the assay buffer. The LDHA reagent was 2 nanomolar (nM) Human LDHA (Meridian Life Science, Inc., Memphis, Tenn.), final concentration, in assay buffer.
For the compound `Cc1cccc(-c2cccc(-c3nn(-c4nc(C(=O)O)cs4)cc3Cc3ccc(S(N)(=O)=O)cc3)c2)c1` [Compound 519, 2-(3-(3′-methyl-[1,1′-biphenyl]-3-yl)-4-(4-sulfamoylbenzyl)-1H-pyrazol-1-yl)thiazole-4-carboxylic acid], the pIC50 was > 7.00. For the compound `CC(C)(C)/C=C/c1cc(-c2nn(-c3nc(C(=O)O)cs3)c(CC3CC3)c2Cc2ccc([S+](N)(=O)[O-])c(F)c2)ccc1F` [Compound 448], the pIC50 is > 7.00. Regarding `COc1cccc(-c2cccc(-c3nn(-c4nc(C(=O)O)cs4)c(C4CC4)c3Cc3ccc(S(N)(=O)=O)cc3F)c2)c1` [Compound 361], the pIC50 is > 7.00. With `NS(=O)(=O)c1ccc(Cc2cn(-c3nc(C(=O)O)cs3)nc2-c2ccc(F)c(-c3cccc(Cl)c3)c2)cc1` [Compound 457, 2-(3-(3′-chloro-6-fluoro-[1,1′-biphenyl]-3-yl)-4-(4-sulfamoylbenzyl)-1H-pyrazol-1-yl)thiazole-4-carboxylic acid], the pIC50 was > 7.00.

`NS(=O)(=O)c1ccc(Cc2c(C3CC3)nn(-c3nc(C(=O)O)cs3)c2-c2cccc(-c3ccc(F)cc3)c2)c(F)c1` [Compound 356] showed a pIC50 of 4.24 to 6.00. For the compound `COc1cc(-c2cc(-c3nn(-c4nc(C(=O)O)cs4)cc3Cc3ccc(S(N)(=O)=O)cc3)ccc2F)ccc1F` [Compound 518, 2-(3-(4′,6-difluoro-3′-methoxy-[1,1′-biphenyl]-3-yl)-4-(4-sulfamoylbenzyl)-1H-pyrazol-1-yl)thiazole-4-carboxylic acid], the pIC50 is > 7.00.

In turn, `N[S+](=O)([O-])c1ccc(Cc2c(C3CC3)nn(-c3nc(C(=O)O)cs3)c2-c2cccc(-c3ccc(F)cc3)c2)cc1F` [Compound 348] gave a pIC50 of 4.24 to 6.00.

Regarding `C=C(C)c1cc(-c2nn(-c3nc(C(=O)O)cs3)c(CC3CC3)c2Cc2ccc(S(N)(=O)=O)c(F)c2)ccc1F` [Compound 534, 2-(5-(cyclopropylmethyl)-3-(4-fluoro-3-(prop-1-en-2-yl)phenyl)-4-(3-fluoro-4-sulfamoylbenzyl)-1H-pyrazol-1-yl)thiazole-4-carboxylic acid], the pIC50 is > 7.00. `Cc1ccc(-c2nn(-c3nc(C(=O)O)cs3)cc2Cc2ccc(S(N)(=O)=O)cc2)cc1-c1cc(F)cc(F)c1` [Compound 489, 2-(3-(3′,5′-difluoro-6-methyl-[1,1′-biphenyl]-3-yl)-4-(4-sulfamoylbenzyl)-1H-pyrazol-1-yl)thiazole-4-carboxylic acid] had a pIC50 of 6.00 to 7.00. Take `NS(=O)(=O)c1ccc(Cc2cn(-c3nc(C(=O)O)cs3)nc2-c2cccc(-c3cccnc3)c2)cc1` [Compound 522, 2-(3-(3-(pyridin-3-yl)phenyl)-4-(4-sulfamoylbenzyl)-1H-pyrazol-1-yl)thiazole-4-carboxylic acid]: the pIC50 was 6.00 to 7.00. Compound `Cc1ccc(-c2nn(-c3nc(C(=O)O)cs3)cc2Cc2ccc(S(N)(=O)=O)cc2)cc1-c1ccc(F)cc1` [Compound 498, 2-(3-(4′-fluoro-6-methyl-[1,1′-biphenyl]-3-yl)-4-(4-sulfamoylbenzyl)-1H-pyrazol-1-yl)thiazole-4-carboxylic acid] had a negative logarithm of the IC50 (pIC50) of 6.00 to 7.00. For the compound `Cc1ccc(-c2cc(-c3nn(-c4nc(C(=O)O)cs4)c(CC4CC4)c3Cc3ccc(S(N)(=O)=O)c(F)c3)ccc2F)cc1` [Compound 362], the pIC50 was > 7.00.

Still in this assay, the particulars now being: LDHA inhibitory activity, assay of Example 1; activity level classes.
Consider `O=C(O)c1csc(-n2cc(Cc3ccc(CO)cc3)c(-c3ccccc3)n2)n1` [Compound 199, 2-(4-(4-(hydroxymethyl)benzyl)-3-phenyl-1H-pyrazol-1-yl)thiazole-4-carboxylic acid], for which the negative logarithm of the IC50 (pIC50) was < 4.24. Regarding `O=C(O)c1csc(-n2cc(Cc3ccc(C(F)(F)F)cc3)c(-c3ccccc3)n2)n1` [Compound 28, 2-(3-phenyl-4-(4-(trifluoromethyl)benzyl)-1H-pyrazol-1-yl)thiazole-4-carboxylic acid], the pIC50 is < 4.24. Regarding `CCOC(=O)c1csc(-n2nc(-c3cccc(-c4ccccc4)c3)c(Cc3ccc(S(N)(=O)=O)cc3F)c2C2CC2)n1` [Compound 244], the pIC50 was < 4.24. For `Nc1c(Cc2ccc(S(N)(=O)=O)cc2)c(-c2ccccc2)nn1-c1cccc(C(=O)O)c1` [Compound 130, 3-(5-amino-3-phenyl-4-(4-sulfamoylbenzyl)-1H-pyrazol-1-yl)benzoic acid], the pIC50 is < 4.24. Turning to `O=C(O)c1csc(-n2cc(CNS(=O)(=O)N3CCNCC3)c(-c3ccccc3)n2)n1` [Compound 138, 2-(3-phenyl-4-((piperazine-1-sulfonamido)methyl)-1H-pyrazol-1-yl)thiazole-4-carboxylic acid], the pIC50 was < 4.24. The compound `NS(=O)(=O)c1ccc(Cc2c(-c3cccc(-c4ccccc4)c3)nn(-c3nc(C(=O)O)cs3)c2C2(C(F)(F)F)CC2)cc1F` [Compound 302] showed a pIC50 of 4.24 to 6.00. For `NS(=O)(=O)c1ccc(Cc2cn(-c3nc(C(=O)O)cs3)c3ccc(-c4ccccc4F)cc23)cc1` [Compound 195, 2-(5-(2-fluorophenyl)-3-(4-sulfamoylbenzyl)-1H-indol-1-yl)thiazole-4-carboxylic acid], the pIC50 was > 7.00. On to `O=C(O)c1csc(-n2nc(-c3ccc(F)c(F)c3)c(Cc3ccccc3)c2O)n1` [Compound 113, 2-(4-benzyl-3-(3,4-difluorophenyl)-5-hydroxy-1H-pyrazol-1-yl)thiazole-4-carboxylic acid], for which the pIC50 was < 4.24. Same read-out and setting: the result for `CS(=O)(=O)c1cc(-c2cc(O)n(-c3nc(C(=O)O)cs3)n2)ccc1F` [Compound 94, 2-(3-(4-fluoro-3-(methylsulfonyl)phenyl)-5-hydroxy-1H-pyrazol-1-yl)thiazole-4-carboxylic acid] reads < 4.24. In the case of `O=C(O)c1csc(-n2nc(-c3ccc(NS(=O)(=O)C4CC4)c(F)c3)cc2O)n1` [Compound 111, 2-(3-(4-(cyclopropanesulfonamido)-3-fluorophenyl)-5-hydroxy-1H-pyrazol-1-yl)thiazole-4-carboxylic acid], the pIC50 is < 4.24.

Staying with this assay, now noted: read-out: Inhibitory activity IC50.
`NS(=O)(=O)c1ccc(Cc2c(-c3ccccc3)nn(-c3nc(C(=O)O)cs3)c2C#Cc2ccccc2)cc1` [Compound 179, 2-(3-phenyl-5-(phenylethynyl)-4-(4-sulfamoylbenzyl)-1H-pyrazol-1-yl)thiazole-4-carboxylic acid]: the pIC50 is 4.24 to 6.00. Turning to `O=C(O)c1csc(-n2nc(-c3ccccc3)cc2C(F)(F)F)n1` [Compound 62, 2-(3-phenyl-5-(trifluoromethyl)-1H-pyrazol-1-yl)thiazole-4-carboxylic acid], the pIC50 was 4.24 to 6.00.

With `NS(=O)(=O)c1ccc(Cc2cn(-c3nc(C(=O)O)cs3)c3ccc(CN4CCOCC4)cc23)cc1` [Compound 32, 2-(5-(morpholinomethyl)-3-(4-sulfamoylbenzyl)-1H-indol-1-yl)thiazole-4-carboxylic acid], the pIC50 is 4.24 to 6.00. For the compound `CCOC(=O)c1csc(-n2nc(-c3ccccc3)c(Oc3ccc(S(N)(=O)=O)cc3)c2C2CC2)n1` [Compound 164, ethyl 2-(5-cyclopropyl-3-phenyl-4-(4-sulfamoylphenoxy)-1H-pyrazol-1-yl)thiazole-4-carboxylate], the pIC50 was 4.24 to 6.00.

As for `NS(=O)(=O)c1ccc(Oc2c(-c3ccccc3)nn(-c3nc(C(=O)O)cs3)c2C2CCCC2)cc1` [Compound 171, 2-(5-cyclopentyl-3-phenyl-4-(4-sulfamoylphenoxy)-1H-pyrazol-1-yl)thiazole-4-carboxylic acid], the pIC50 is 6.00 to 7.00.

As for `N[S+](=O)([O-])c1ccc(Cc2c(CC3CC3)nn(-c3nc(C(=O)O)cs3)c2-c2ccc(F)c(-c3ccc(F)cc3)c2)c(F)c1` [Compound 308], the pIC50 was 4.24 to 6.00.

For the compound `NS(=O)(=O)c1ccc(Oc2c(-c3ccccc3)nn(-c3nc(C(=O)O)cs3)c2O)cc1` [Compound 24, 2-(5-hydroxy-3-phenyl-4-(4-sulfamoylphenoxy)-1H-pyrazol-1-yl)thiazole-4-carboxylic acid], the pIC50 is 6.00 to 7.00. As to `CCOC(=O)c1coc(-n2nc(-c3ccccc3)c(Cc3ccc(S(N)(=O)=O)cc3)c2N)n1` [Compound 151, ethyl 2-(5-amino-3-phenyl-4-(4-sulfamoylbenzyl)-1H-pyrazol-1-yl)oxazole-4-carboxylate], the pIC50 is 4.24 to 6.00. On the same count and under the same terms, the value for `NS(=O)(=O)c1ccc(Cc2cn(-c3nc(C(=O)O)cs3)c3cc(C(F)(F)F)ccc23)cc1` [Compound 197, 2-(3-(4-sulfamoylbenzyl)-6-(trifluoromethyl)-1H-indol-1-yl)thiazole-4-carboxylic acid] was 6.00 to 7.00. Still for that read-out and setting: the value for `NS(=O)(=O)c1ccc(-c2cn(-c3nc(C(=O)O)cs3)nc2-c2ccccc2)cc1` [Compound 76, 2-(3-phenyl-4-(4-sulfamoylphenyl)-1H-pyrazol-1-yl)thiazole-4-carboxylic acid] was 4.24 to 6.00. The same measure, in the same setting: the value for `NS(=O)(=O)c1ccc(Cc2cn(-c3nc(C(=O)O)cs3)c3ccccc23)cc1` [Compound 196, 2-(3-(4-sulfamoylbenzyl)-1H-indol-1-yl)thiazole-4-carboxylic acid] was 6.00 to 7.00; that for `CCOC(=O)c1csc(-n2cc(Nc3ccc(S(N)(=O)=O)cc3)c(-c3cccc(-c4ccccc4)c3)n2)n1` [Compound 162, ethyl 2-(3-([1,1′-biphenyl]-3-yl)-4-((4-sulfamoylphenyl)amino)-1H-pyrazol-1-yl)thiazole-4-carboxylate] was 4.24 to 6.00; that for `O=C(O)c1csc(-n2nc(-c3cccc(-c4ccccc4F)c3)cc2O)n1` [Compound 63, 2-(3-(2′-fluoro-[1,1′-biphenyl]-3-yl)-5-hydroxy-1H-pyrazol-1-yl)thiazole-4-carboxylic acid] was < 4.24. In the case of `NS(=O)(=O)c1ccc(Cc2cn(-c3nc(C(=O)O)cs3)c3ccncc23)cc1` [Compound 34, 2-(3-(4-sulfamoylbenzyl)-1H-pyrrolo[3,2-c]pyridin-1-yl)thiazole-4-carboxylic acid], the pIC50 is 6.00 to 7.00. For the compound `Cc1ccc(-c2cc(-c3c(Cc4ccc([S+](N)(=O)[O-])c(F)c4)c(CC4CC4)nn3-c3nc(C(=O)O)cs3)ccc2F)cc1` [Compound 287], the pIC50 is 4.24 to 6.00.

The record behind these values is patent publication US10961200B2, “Small molecule inhibitors of lactate dehydrogenase and methods of use thereof” (THE UNITED STATES OF AMERICA, AS REPRESENTED BY THE …, priority 2014, dated 2021).
